# Results: US20250287944A1, “AMINOETHOXYVINYLGLYCINE AND 1-AMINO-1-CYCLOPROPANECARBOXYLIC ACID AND USES THEREOF” (Valent BioSciences LLC, priority 2024, published 2025)
# Tests used:
# Type in all cases: in vivo
# [1] = system: apples, Cripps Pink variety; assay: Apple characteristics in Cripps Pink variety (red pixel area, ground color, firmness, starch conversion, brix); design: Ground Color / Starch: scale not given here; Firmness: unit not given here; conditions: 34 hours post spray; for Average % Red Pixel Area: shaded; for Starch: starch conversion
# Description: (§1) 10 sets of unripened apples, Cripps Pink variety, harvested three weeks before the normal harvest date, were each foliar sprayed with either 1) 0.05% Regulaid® as a control, 2) 125 ppm ACC, 3) 250 ppm ACC, 4) 500 ppm ACC, 5) 125 ppm AVG, 6) 125 ppm ACC and 125 ppm AVG, 7) 250 ppm ACC and 125 ppm AVG or 8) 500 ppm ACC and 125 ppm AVG. 34 hours post spray application percent red pixel area (shaded), ground color, fruit firmness, starch conversion and brix were measured.
# [2] = system: apples, Cripps Pink variety; assay: Apple coloration in Cripps Pink variety (blush classes); conditions: 34 hours post spray; for % Cripps Red: apples with a blush from 20% to 40%; for % Pink Lady: apples with a blush of greater than 40%; for % Class 3: apples with a blush of less than 20%
# Description: as §1, with “(shaded) was measured. Pink Lady denotes apples with a blush of greater than 40%, Cripps Red denotes apples with a blush from 20% to 40%” for “(shaded), ground color, fruit firmness, starch conversion”, “Class 3 denotes apples with a blush of less than 20%.” for “brix were measured.”
# [3] = system: apple trees with mature apples of the Cripps Pink variety; assay: Fruit drop in Cripps Pink variety
# Text: AVG and/or ACC were applied to apple trees with mature apples of the Cripps Pink variety, wherein each set of trees were foliar sprayed with either 1) 0.05% Regulaid® as a control, 2) 125 ppm ACC, 3) 250 ppm ACC, 4) 500 ppm ACC, 5) 125 ppm AVG, 6) 125 ppm ACC and 125 ppm AVG, 7) 250 ppm ACC and 125 ppm AVG or 8) 500 ppm ACC and 125 ppm AVG.
# [4] = system: apples, Cripps Pink variety; assay: Apple greasiness in Cripps Pink variety; conditions: 12 weeks of cold storage and 7 days at room temperature
# Description: as §1, with “Following 12 weeks of cold storage” for “34 hours post spray application percent red pixel area (shaded), ground color, fruit firmness, starch conversion”, “7 days at room temperature greasiness was” for “brix were”
# [5] = harvest 1, 125 ppm foliar spray
# [6] = harvest 1, 250 ppm foliar spray
# [7] = harvest 1, 500 ppm foliar spray
# [8] = harvest 2, 125 ppm foliar spray
# [9] = harvest 2, 250 ppm foliar spray
# [10] = harvest 2, 500 ppm foliar spray
smiles,measurement,setting,value
"NC1(C(=O)O)CC1 [ACC, 1-amino-1-cyclopropanecarboxylic acid]",Brix,[1]; 125 ppm foliar spray,12.25
same,Firmness,[1]; 125 ppm foliar spray,8.61
same,Ground Color,[1]; 125 ppm foliar spray,3.01
same,Average % Red Pixel Area,[1]; 125 ppm foliar spray,6.9%
same,Brix,[1]; 250 ppm foliar spray,12.5
same,Firmness,[1]; 250 ppm foliar spray,8.58
same,Ground Color,[1]; 250 ppm foliar spray,2.96
same,Average % Red Pixel Area,[1]; 250 ppm foliar spray,8%
same,Brix,[1]; 500 ppm foliar spray,12.51
same,Firmness,[1]; 500 ppm foliar spray,8.4
same,Ground Color,[1]; 500 ppm foliar spray,3.04
same,Average % Red Pixel Area,[1]; 500 ppm foliar spray,8.7%
same,Starch,[1]; 125 ppm foliar spray,40
same,Starch,[1]; 250 ppm foliar spray,45.3
same,Starch,[1]; 500 ppm foliar spray,56.2
same,% Cripps Red,[2]; 125 ppm foliar spray,15%
same,% Cripps Red,[2]; 250 ppm foliar spray,11.5%
same,% Cripps Red,[2]; 500 ppm foliar spray,9%
same,% Pink Lady,[2]; 125 ppm foliar spray,76.5%
same,% Pink Lady,[2]; 250 ppm foliar spray,84.5%
same,% Pink Lady,[2]; 500 ppm foliar spray,89%
same,% Class 3,[2]; 125 ppm foliar spray,8.5%
same,% Class 3,[2]; 250 ppm foliar spray,4%
same,% Class 3,[2]; 500 ppm foliar spray,2%
same,# of Fruit Dropped (Evaluation 1),[3]; 125 ppm foliar spray to trees,11.3 c
same,# of Fruit Dropped (Evaluation 2),[3]; 125 ppm foliar spray to trees,10.4 bc
same,Total # of Fruit Dropped,[3]; 125 ppm foliar spray to trees,26.3 c
same,# of Fruit Dropped (Evaluation 1),[3]; 250 ppm foliar spray to trees,15.2 c
same,# of Fruit Dropped (Evaluation 2),[3]; 250 ppm foliar spray to trees,16.4 b
same,Total # of Fruit Dropped,[3]; 250 ppm foliar spray to trees,35.2 bc
same,# of Fruit Dropped (Evaluation 1),[3]; 500 ppm foliar spray to trees,59.7 a
same,# of Fruit Dropped (Evaluation 2),[3]; 500 ppm foliar spray to trees,40.1 a
same,Total # of Fruit Dropped,[3]; 500 ppm foliar spray to trees,105.8 a
same,Percent Fruit with Moderate Greasiness,[4]; [5],40%
same,Percent Fruit with No Greasiness,[4]; [5],21%
same,Percent Fruit with Severe Greasiness,[4]; [5],17%
same,Percent Fruit with Slight Greasiness,[4]; [5],22%
same,Percent Fruit with Moderate Greasiness,[4]; [6],40%
same,Percent Fruit with No Greasiness,[4]; [6],5%
same,Percent Fruit with Severe Greasiness,[4]; [6],39%
same,Percent Fruit with Slight Greasiness,[4]; [6],16%
same,Percent Fruit with Moderate Greasiness,[4]; [7],44%
same,Percent Fruit with No Greasiness,[4]; [7],1%
same,Percent Fruit with Severe Greasiness,[4]; [7],48%
same,Percent Fruit with Slight Greasiness,[4]; [7],7%
same,Percent Fruit with Moderate Greasiness,[4]; [8],31.1%
same,Percent Fruit with No Greasiness,[4]; [8],0%
same,Percent Fruit with Severe Greasiness,[4]; [8],68.9%
same,Percent Fruit with Slight Greasiness,[4]; [8],0%
same,Percent Fruit with Moderate Greasiness,[4]; [9],15%
same,Percent Fruit with No Greasiness,[4]; [9],0%
same,Percent Fruit with Severe Greasiness,[4]; [9],85%
same,Percent Fruit with Slight Greasiness,[4]; [9],0%
same,Percent Fruit with Moderate Greasiness,[4]; [10],19%
same,Percent Fruit with No Greasiness,[4]; [10],0%
same,Percent Fruit with Severe Greasiness,[4]; [10],81%
same,Percent Fruit with Slight Greasiness,[4]; [10],0%
"NCCO/C=C/[C@H](N)C(=O)O [AVG, ([S]-trans-2-amino-4-(2-aminoethoxy)-3-butenoic acid]",Brix,[1]; 125 ppm foliar spray,12.33
same,Firmness,[1]; 125 ppm foliar spray,8.62
same,Ground Color,[1]; 125 ppm foliar spray,2.93
same,Average % Red Pixel Area,[1]; 125 ppm foliar spray,6.3%
same,Starch,[1]; 125 ppm foliar spray,25.9
same,% Cripps Red,[2]; 125 ppm foliar spray,21.5%
same,% Pink Lady,[2]; 125 ppm foliar spray,69.5%
same,% Class 3,[2]; 125 ppm foliar spray,9%
same,# of Fruit Dropped (Evaluation 1),[3]; 125 ppm foliar spray to trees,9.7 c
same,# of Fruit Dropped (Evaluation 2),[3]; 125 ppm foliar spray to trees,7.4 c
same,Total # of Fruit Dropped,[3]; 125 ppm foliar spray to trees,20.8 c
same,Percent Fruit with Moderate Greasiness,[4]; [5],1%
same,Percent Fruit with No Greasiness,[4]; [5],94%
same,Percent Fruit with Severe Greasiness,[4]; [5],0%
same,Percent Fruit with Slight Greasiness,[4]; [5],5%
same,Percent Fruit with Moderate Greasiness,[4]; [8],49%
same,Percent Fruit with No Greasiness,[4]; [8],22%
same,Percent Fruit with Severe Greasiness,[4]; [8],2%
same,Percent Fruit with Slight Greasiness,[4]; [8],27%
